Experimental data from US20250049911A1, “I[…] FOR IMMUNOTHERAPEUTIC AND OTHER USES” (priority 2021, published 2025).

B1: IL-7 (protein, UniProt P13232 26-177, looked up)
Interleukin-7: DCDIEGKDGKQYESVLMVSIDQLLDSMKEIGSNCLNNEFNFFKRHICDANKEGMFLFRAARKLRQFLKMNSTGDFDLHLLKVSEGTTILLNCTGQVKGRKPAALGEAQPTKSLEENKSLKEQKKLNDLCFLKRLLQEIKTCWNKILMGTKEH

Columns and labels:
[1] = test system: primary human naïve CD8+ T cells; format: cell-based
murine CD8+ T cells = experiment: IFN-γ expression and proliferation of murine CD8+ T cells; format: cell-based, mouse
CoV2 RBD protein = test system: CoV2 RBD protein; design: species or system SARS-CoV-2; settings: in vivo

Molecule | development of TMSCs [1] | TMSC formation [1] | further results
6-bromo-substituted indirubin [BIO] | promoted the development of TMSCs |  | 
O=C1Cc2c([nH]c3ccc(Br)cc23)-c2ncccc2N1 [1-Azakenpaullone] | promoted the development of TMSCs |  | 
CC(=O)O/N=C1/C(=C2/C(=O)Nc3cc(Br)ccc32)Nc2ccccc21 [BIO-acetoxime] | promoted the development of TMSCs |  | 
Nc1cccc(-c2cc3c(Oc4cccc(O)c4)ncnc3[nH]2)c1.O=C(O)C(F)(F)F.O=C(O)C(F)(F)F [TWS119] |  | could not induce TMSC formation | IFN-γ expression (murine CD8+ T cells; 4 days post treatment): inhibited; T cell proliferation (murine CD8+ T cells; CFSE proliferation staining): inhibited
IL-15 |  | only a moderate advantage | TMSC expansion in culture [1]: significantly expanded TMSCs
Polyinosinic:polycytidylic acid [poly(I:C)] |  |  | humoral response (CoV2 RBD protein): strong humoral response; ratio of IgG2b to IgG1 titer (CoV2 RBD protein): balanced Th1/Th2 profile or Th2-dominant response
B1 |  | only a moderate advantage | TMSC expansion in culture [1]: significantly expanded TMSCs
